In general, half-life refers to how long it takes for the measured level to halve.

Here are results for one compound from ChEMBL document CHEMBL4825767, “Development of 2-(5,6,7-Trifluoro-1H-Indol-3-yl)-quinoline-5-carboxamide as a Potent, Selective, and Orally Available Inhibitor of Human Androgen Receptor Targeting Its Binding Function-3 for the Treatment of Castration-Resistant Prostate Cancer” (J Med Chem, 2021).

This series can be described thus: Half life in human liver microsomes at 2 uM in presence of NADPH measured up to 40 mins. A general note: Liver microsomes are vesicles of endoplasmic reticulum, rich in cytochrome P450 enzymes.

Turning to `Fc1cc(Cl)c2[nH]cc(-c3ccc4ccccc4n3)c2c1`, the half-life at 40 min, 2 µM was determined as 23 min.
